Read-outs that look alike come from different tables or passages of the source.
Key:
[1] = tested on: RSV (RSV A2 ECACC, 0709161v); test: RSV plaque reduction assay; type: cell-based, respiratory syncytial virus; conditions: mean of at least two experiments unless noted (n = 1)
Outline: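 Eight-point compound dilutions were premixed with RSV A2 (100 PFU/well) and applied to confluent Hep-G2 cells for 2 h, followed by a 2-day incubation at 37° C. under compound-containing 0.8% CMC overlay. EC50 comes from immunostained plaque counts relative to untreated virus wells, averaged over ≥2 runs.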

Hep-G2 cells = test: cell toxicity CC50; type: cell-based; conditions: mean of at least two experiments, read-out: Cell Cytotoxicity CC50
cell toxicity CC50 = type: cell-based; conditions: human; Hep-G2 cells; mean of at least two experiments; read-out: Cell Cytotoxicity CC50
[2] = read-out: RSV A2 Plaque EC50, RSV A2 in Hep-G2 cells
[3] = RSV A2 in Hep-G2 cells, read-out: RSV A2 Plaque EC50
[4] = human respiratory syncytial virus, HepG2, read-out: RSV A2 Plaque EC50, RSV A2 in Hep-G2 cells

What does the source list for `O=C(N[C@H]1N=C(c2ccccc2)c2cccc(F)c2NC1=O)c1c(-c2c(F)cccc2F)nn2c1OCC(CO)C2` (single isomer, unassigned) [Example 129-2, (6S*)-2-(2,6-Difluorophenyl)-N-[(3S)-9-fluoro-2-oxo-5-phenyl-1,3-dihydro-1,4-benzodiazepin-3-yl]-6-(hydroxymethyl)-6,7-dihydro-5H-pyrazolo[5,1-b][1,3]oxazine-3-carboxamide]?
EC50 [1, 2]: 73 nM; CC50 (Hep-G2 cells): > 25000 nM

Which EC50 [1, 3] does the source give for “tert-butyl N-[3- [[(3S)-9-fluoro-2- oxo-5-phenyl-1,3- dihydro-1,4- benzodiazepin-3- yl]carbamoyl]-2-(2- fluorophenyl)-6,7- dihydro-5H- pyrazolo[5,1- b][1,3]oxazin-6-yl]- N-methylcarbamate [Example 107]” here?
Its EC50 is 93 nM.

And the CC50 (Hep-G2 cells)?
The CC50 was over 25000 nM.

Which EC50 [1, 2] does the source give for `O=C(N[C@H]1N=C(c2ccccc2)c2cccc(F)c2NC1=O)c1c(-c2ccccc2F)nn2c1OCC(CO)C2` (single isomer, unassigned) [Example 110-2, (6S*)-N-[(3S)-9-fluoro-2-oxo-5-phenyl-1,3-dihydro-1,4-benzodiazepin-3-yl]-2-(2-fluorophenyl)-6-(hydroxymethyl)-6,7-dihydro-5H-pyrazolo[5,1-b][1,3]oxazine-3-carboxamide] here?
Its EC50 is 61 nM.

And the CC50 (Hep-G2 cells)?
Its CC50 is over 25000 nM.

Which EC50 [1, 3] does the source give for “(5R)-2-[1- (Difluoromethyl)pyra- zol-4-yl]-N-[(3S)-9- fluoro-2-oxo-5- phenyl-1,3-dihydro- 1,4-benzodiazepin-3- yl]-5-methyl-6,7- dihydro-5H- pyrazolo[5,1- b][1,3]oxazine-3- carboxamide [Example 120]” here?
Its EC50 is 97 nM.

And the CC50 (Hep-G2 cells)?
The CC50 was over 25000 nM.

What does the source list for `COCC1CCn2nc(-c3ccccc3F)c(C(=O)N[C@H]3N=C(c4ccccc4)c4cccc(F)c4NC3=O)c2O1` (single isomer, unassigned) [Example 191-2, (5S*)-N-[(3S)-9-fluoro-2-oxo-5-phenyl-1,3-dihydro-1,4-benzodiazepin-3-yl]-2-(2-fluorophenyl)-5-(methoxymethyl)-6,7-dihydro-5H-pyrazolo[5,1-b][1,3]oxazine-3-carboxamide]?
EC50 [1, 2]: 280 nM; CC50 (Hep-G2 cells): > 25000 nM

Which results are given for “2-(2,6-Difluorophenyl)-N-[(3S)-9-fluoro-2-oxo-5-phenyl-1,3-dihydro-1,4-benzodiazepin-3-yl]-6,7-dihydro-5H-pyrazolo[5,1-b][1,3]oxazine-3-carboxamide [Example 196]”?
EC50 [1, 3]: 25 nM; CC50 (Hep-G2 cells): > 25000 nM

With “N-[(3S)-9-fluoro-2- oxo-5-phenyl-1,3- dihydro-1,4- benzodiazepin-3-yl]- 2-(2-fluorophenyl)- 6-(hydroxymethyl)- 6,7-dihydro-5H- pyrazolo[5,1- b][1,3]oxazine-3- carboxamide [Example 110]” as the compound, how does the EC50 [1, 3] read?
The EC50 was 51 nM.

What about the CC50 (Hep-G2 cells) of the same compound?
The CC50 was over 25000 nM.

For “N-[(3S)-9-fluoro-2- oxo-5-phenyl-1,3- dihydro-1,4- benzodiazepin-3-yl]-2- (2-fluorophenyl)-6- (morpholin-4- ylmethyl)-6,7-dihydro- 5H-pyrazolo[5,1- b][1,3]oxazine-3- carboxamide [Example 173]”, which EC50 [1, 3] is on record?
Its EC50 is 91 nM.

And the CC50 (Hep-G2 cells)?
The CC50 was over 25000 nM.

For `CCNc1ccc(-c2nn3c(c2C(=O)N[C@H]2N=C(c4ccccc4)c4cccc(F)c4NC2=O)OCCC3)c(F)n1` [Example 3, 2-[6-(Ethylamino)-2-fluoropyridin-3-yl]-N-[(3S)-9-fluoro-2-oxo-5-phenyl-1,3-dihydro-1,4-benzodiazepin-3-yl]-6,7-dihydro-5H-pyrazolo[5,1-b][1,3]oxazine-3-carboxamide], which EC50 [1, 3] is on record?
The EC50 was 20 nM.

And the CC50 (Hep-G2 cells)?
Its CC50 is over 25000 nM.

What does the source list for `O=C(N[C@H]1N=C(c2ccccc2)c2ccccc2NC1=O)c1c(-c2c(F)cccc2F)nn2c1OC(CO)CC2` (single isomer, unassigned) [Example 188-2, (5S*)-2-(2,6-Difluorophenyl)-5-(hydroxymethyl)-N-[(3S)-2-oxo-5-phenyl-1,3-dihydro-1,4-benzodiazepin-3-yl]-6,7-dihydro-5H-pyrazolo[5,1-b][1,3]oxazine-3-carboxamide]?
EC50 [1, 2]: 281 nM; CC50 (Hep-G2 cells): > 25000 nM

For “(5R)-2-(2-Fluoro-6-methylpyridin-3-yl)-5-methyl-N-[(3S)-2-oxo-5-phenyl-1,3-dihydro-1,4-benzodiazepin-3-yl]-6,7-dihydro-5H-pyrazolo[5,1-b][3,1]oxazine-3-carboxamide [Example 72]”, which EC50 [1, 3] is on record?
The EC50 was 100 nM.

What about the CC50 (Hep-G2 cells) of the same compound?
Its CC50 is over 25000 nM.

For `CCC1COc2c(C(=O)N[C@H]3N=C(c4ccccc4)c4cccc(F)c4NC3=O)c(-c3ccccc3F)nn2C1` (stereo partly drawn) [Example 11, 6-Ethyl-N-[(3S)-9-fluoro-2-oxo-5-phenyl-2,3-dihydro-1H-1,4-benzodiazepin-3-yl]-2-(2-fluorophenyl)-5H,6H,7H-pyrazolo[3,2-b][1,3]oxazine-3-carboxamide], which EC50 [1, 4] is on record?
Its EC50 is 33 nM.

What about the CC50 (cell toxicity CC50) of the same compound?
Its CC50 is over 25000 nM.

With `O=C(N[C@H]1N=C(c2ccccc2)c2cccc(F)c2NC1=O)c1c(-c2ccccc2F)nn2c1OC1(CC2)CC1` [Example 7, N-[(3S)-9-fluoro-2-oxo-5-phenyl-1,3-dihydro-1,4-benzodiazepin-3-yl]-2-(2-fluorophenyl)spiro[6,7-dihydropyrazolo[5,1-b][1,3]oxazine-5,1′-cyclopropane]-3-carboxamide] as the compound, how does the EC50 [1, 4] read?
Its EC50 is 32 nM.

What about the CC50 (cell toxicity CC50) of the same compound?
The CC50 was over 25000 nM.

For `O=C(N[C@H]1N=C(c2ccccc2)c2ccccc2NC1=O)c1nn2c(c1-c1ccccc1F)OCCC2` [Example 36, 3-(2-Fluorophenyl)-N-[(3S)-2-oxo-5-phenyl-1,3-dihydro-1,4-benzodiazepin-3-yl]-6,7-dihydro-5H-pyrazolo[5,1-b][1,3]oxazine-2-carboxamide], which EC50 [1, 4] is on record?
The EC50 was 444 nM.

What about the CC50 (cell toxicity CC50) of the same compound?
Its CC50 is over 25000 nM.

For `CCn1cc(-c2nn3c(c2C(=O)N[C@H]2N=C(c4ccccc4)c4cccc(F)c4NC2=O)O[C@@H](C)CC3)cn1` [Example 158, (5S)-2-(1-Ethylpyrazol-4-yl)-N-[(3S)-9-fluoro-2-oxo-5-phenyl-1,3-dihydro-1,4-benzodiazepin-3-yl]-5-methyl-6,7-dihydro-5H-pyrazolo[5,1-b][1,3]oxazine-3-carboxamide], which EC50 [1, 4] is on record?
The EC50 was 48 nM.

And the CC50 (cell toxicity CC50)?
Its CC50 is over 25000 nM.

Which EC50 [1, 4] does the source give for `CCc1ccc(-c2nn3c(c2C(=O)N[C@H]2N=C(c4ccccc4)c4ccccc4NC2=O)OCC2(CC2)C3)cn1` [Example 180, 2-(6-Ethylpyridin-3-yl)-N-[(3S)-2-oxo-5-phenyl-1,3-dihydro-1,4-benzodiazepin-3-yl]spiro[5,7-dihydropyrazolo[5,1-b][1,3]oxazine-6,1′-cyclopropane]-3-carboxamide] here?
The EC50 was 75 nM.

And the CC50 (cell toxicity CC50)?
The CC50 was over 25000 nM.

For `O=C(N[C@H]1N=C(c2ccccc2)c2cccc(F)c2NC1=O)c1c(-c2ccc(F)cc2F)nn2c1OCC(CO)C2` (stereo partly drawn) [Example 128, 2-(2,4-Difluorophenyl)-N-[(3S)-9-fluoro-2-oxo-5-phenyl-1,3-dihydro-1,4-benzodiazepin-3-yl]-6-(hydroxymethyl)-6,7-dihydro-5H-pyrazolo[5,1-b][1,3]oxazine-3-carboxamide], which EC50 [1, 4] is on record?
Its EC50 is 41 nM.

And the CC50 (cell toxicity CC50)?
Its CC50 is over 25000 nM.

With `O=C(N[C@H]1N=C(c2ccccc2)c2cccc(F)c2NC1=O)c1c(-c2c(F)cccc2F)nn2c1OCC(CO)C2` (mixture of isomers) [Example 129, 2-(2,6-Difluorophenyl)-N-[(3S)-9-fluoro-2-oxo-5-phenyl-1,3-dihydro-1,4-benzodiazepin-3-yl]-6-(hydroxymethyl)-6,7-dihydro-5H-pyrazolo[5,1-b][1,3]oxazine-3-carboxamide] as the compound, how does the EC50 [1, 4] read?
Its EC50 is 37 nM.

What about the CC50 (cell toxicity CC50) of the same compound?
Its CC50 is over 25000 nM.

With `O=C(N[C@H]1N=C(c2ccccc2)c2ccccc2NC1=O)c1c(-c2ccc(NC3CC3)nc2F)nn2c1OCCC2` [Example 44, 2-[6-(Cyclopropylamino)-2-fluoropyridin-3-yl]-N-[(3S)-2-oxo-5-phenyl-1,3-dihydro-1,4-benzodiazepin-3-yl]-6,7-dihydro-5H-pyrazolo[5,1-b][1,3]oxazine-3-carboxamide] as the compound, how does the EC50 [1, 4] read?
Its EC50 is 55 nM.

And the CC50 (cell toxicity CC50)?
The CC50 was over 25000 nM.

Which EC50 [1, 4] does the source give for `CC(C)Nc1ccc(-c2nn3c(c2C(=O)N[C@H]2N=C(c4ccccc4)c4cccc(F)c4NC2=O)OCCC3)cn1` [Example 19, N-[(3S)-9-fluoro-2-oxo-5-phenyl-1,3-dihydro-1,4-benzodiazepin-3-yl]-2-[6-(propan-2-ylamino)pyridin-3-yl]-6,7-dihydro-5H-pyrazolo[5,1-b][1,3]oxazine-3-carboxamide] here?
The EC50 was 31 nM.

And the CC50 (cell toxicity CC50)?
Its CC50 is over 25000 nM.

Which results are given for `C[C@H]1COc2c(C(=O)N[C@H]3N=C(c4ccccc4)c4cccc(F)c4NC3=O)c(-c3ccccc3F)nn2C1` [Example 10, (6R)-N-[(3S)-9-fluoro-2-oxo-5-phenyl-1,3-dihydro-1,4-benzodiazepin-3-yl]-2-(2-fluorophenyl)-6-methyl-6,7-dihydro-5H-pyrazolo[5,1-b][1,3]oxazine-3-carboxamide]?
EC50 [1, 4]: 23 nM; CC50 (cell toxicity CC50): > 25000 nM

What does the source list for `C[C@@H]1CCn2nc(-c3ccsc3)c(C(=O)N[C@H]3N=C(c4ccccc4)c4cccc(F)c4NC3=O)c2O1` [Example 63, (5R)-N-[(3S)-9-fluoro-2-oxo-5-phenyl-1,3-dihydro-1,4-benzodiazepin-3-yl]-5-methyl-2-(3-thienyl)-6,7-dihydro-5H-pyrazolo[5,1-b][1,3]oxazine-3-carboxamide]?
EC50 [1, 4]: 94 nM; CC50 (cell toxicity CC50): > 25000 nM

With `O=C(N[C@H]1N=C(c2ccccc2)c2cccc(F)c2NC1=O)c1c(Br)nn2c1OCCC2` [Example 195, 2-Bromo-N-[(3S)-9-fluoro-2-oxo-5-phenyl-1,3-dihydro-1,4-benzodiazepin-3-yl]-6,7-dihydro-5H-pyrazolo[5,1-b][1,3]oxazine-3-carboxamide] as the compound, how does the EC50 [1, 4] read?
The EC50 was 355 nM.

What about the CC50 (cell toxicity CC50) of the same compound?
The CC50 was over 25000 nM.
